Laboratory results reported in patent publication US9096602B2, “Substituted pyrrolo[2,3-B]pyrazines as ATR kinase inhibitors” (Vertex Pharmaceuticals Incorporated, priority 2011, dated 2015).

These compounds were tested against T1, ATR kinase (full-length ATR) (Homo sapiens, UniProt Q13535) (assay: ATR Inhibition Assay (radioactive-phosphate incorporation)). Conditions: Ki(app); 5 nM full-length ATR, 10 μM ATP, 800 μM target peptide, 25° C.; class symbols; read-out: ATR Inhibition Ki.
T1 construct: Assays were carried out at 25° C. in the presence of 5 nM full-length ATR
Type: biochemical
Protocol: Compounds were screened for their ability to inhibit ATR kinase using a radioactive-phosphate incorporation assay. Assays were carried out in a mixture of 50 mM Tris/HCl (pH 7.5), 10 mM MgCl2 and 1 mM DTT. Final substrate concentrations were 10 μM [y-33P]ATP (3mCi 33P ATP/mmol ATP, Perkin Elmer) and 800 μM target peptide ([…]).
Assays were carried out at 25° C. in the presence of 5 nM full-length ATR. An assay stock buffer solution was prepared containing all of the reagents listed above, with the exception of ATP and the test compound of interest. […] The plate was pre-incubated for 10 minutes at 25° C. and the reaction initiated by addition of 15 μL [y-33P]ATP (final concentration 10 μM).
The reaction was stopped after […] by the addition of 30 μL 0.1M phosphoric acid containing 2 mM ATP. A multiscreen phosphocellulose filter 96-well plate (Millipore, Cat no. MAPHN0B50) was pretreated with 100 μL 0.2M phosphoric acid prior to the addition of 45 μL of the stopped assay mixture. The plate was washed with 5×200 μL 0.2M phosphoric acid.
After removing mean background values for all of the data points, Ki(app) data were calculated from non-linear regression analysis of the initial rate data using the Prism software package (GraphPad Prism version 3.0cx for Macintosh, GraphPad Software, San Diego Calif., USA).

T1 sequence (Q13535 whole entry): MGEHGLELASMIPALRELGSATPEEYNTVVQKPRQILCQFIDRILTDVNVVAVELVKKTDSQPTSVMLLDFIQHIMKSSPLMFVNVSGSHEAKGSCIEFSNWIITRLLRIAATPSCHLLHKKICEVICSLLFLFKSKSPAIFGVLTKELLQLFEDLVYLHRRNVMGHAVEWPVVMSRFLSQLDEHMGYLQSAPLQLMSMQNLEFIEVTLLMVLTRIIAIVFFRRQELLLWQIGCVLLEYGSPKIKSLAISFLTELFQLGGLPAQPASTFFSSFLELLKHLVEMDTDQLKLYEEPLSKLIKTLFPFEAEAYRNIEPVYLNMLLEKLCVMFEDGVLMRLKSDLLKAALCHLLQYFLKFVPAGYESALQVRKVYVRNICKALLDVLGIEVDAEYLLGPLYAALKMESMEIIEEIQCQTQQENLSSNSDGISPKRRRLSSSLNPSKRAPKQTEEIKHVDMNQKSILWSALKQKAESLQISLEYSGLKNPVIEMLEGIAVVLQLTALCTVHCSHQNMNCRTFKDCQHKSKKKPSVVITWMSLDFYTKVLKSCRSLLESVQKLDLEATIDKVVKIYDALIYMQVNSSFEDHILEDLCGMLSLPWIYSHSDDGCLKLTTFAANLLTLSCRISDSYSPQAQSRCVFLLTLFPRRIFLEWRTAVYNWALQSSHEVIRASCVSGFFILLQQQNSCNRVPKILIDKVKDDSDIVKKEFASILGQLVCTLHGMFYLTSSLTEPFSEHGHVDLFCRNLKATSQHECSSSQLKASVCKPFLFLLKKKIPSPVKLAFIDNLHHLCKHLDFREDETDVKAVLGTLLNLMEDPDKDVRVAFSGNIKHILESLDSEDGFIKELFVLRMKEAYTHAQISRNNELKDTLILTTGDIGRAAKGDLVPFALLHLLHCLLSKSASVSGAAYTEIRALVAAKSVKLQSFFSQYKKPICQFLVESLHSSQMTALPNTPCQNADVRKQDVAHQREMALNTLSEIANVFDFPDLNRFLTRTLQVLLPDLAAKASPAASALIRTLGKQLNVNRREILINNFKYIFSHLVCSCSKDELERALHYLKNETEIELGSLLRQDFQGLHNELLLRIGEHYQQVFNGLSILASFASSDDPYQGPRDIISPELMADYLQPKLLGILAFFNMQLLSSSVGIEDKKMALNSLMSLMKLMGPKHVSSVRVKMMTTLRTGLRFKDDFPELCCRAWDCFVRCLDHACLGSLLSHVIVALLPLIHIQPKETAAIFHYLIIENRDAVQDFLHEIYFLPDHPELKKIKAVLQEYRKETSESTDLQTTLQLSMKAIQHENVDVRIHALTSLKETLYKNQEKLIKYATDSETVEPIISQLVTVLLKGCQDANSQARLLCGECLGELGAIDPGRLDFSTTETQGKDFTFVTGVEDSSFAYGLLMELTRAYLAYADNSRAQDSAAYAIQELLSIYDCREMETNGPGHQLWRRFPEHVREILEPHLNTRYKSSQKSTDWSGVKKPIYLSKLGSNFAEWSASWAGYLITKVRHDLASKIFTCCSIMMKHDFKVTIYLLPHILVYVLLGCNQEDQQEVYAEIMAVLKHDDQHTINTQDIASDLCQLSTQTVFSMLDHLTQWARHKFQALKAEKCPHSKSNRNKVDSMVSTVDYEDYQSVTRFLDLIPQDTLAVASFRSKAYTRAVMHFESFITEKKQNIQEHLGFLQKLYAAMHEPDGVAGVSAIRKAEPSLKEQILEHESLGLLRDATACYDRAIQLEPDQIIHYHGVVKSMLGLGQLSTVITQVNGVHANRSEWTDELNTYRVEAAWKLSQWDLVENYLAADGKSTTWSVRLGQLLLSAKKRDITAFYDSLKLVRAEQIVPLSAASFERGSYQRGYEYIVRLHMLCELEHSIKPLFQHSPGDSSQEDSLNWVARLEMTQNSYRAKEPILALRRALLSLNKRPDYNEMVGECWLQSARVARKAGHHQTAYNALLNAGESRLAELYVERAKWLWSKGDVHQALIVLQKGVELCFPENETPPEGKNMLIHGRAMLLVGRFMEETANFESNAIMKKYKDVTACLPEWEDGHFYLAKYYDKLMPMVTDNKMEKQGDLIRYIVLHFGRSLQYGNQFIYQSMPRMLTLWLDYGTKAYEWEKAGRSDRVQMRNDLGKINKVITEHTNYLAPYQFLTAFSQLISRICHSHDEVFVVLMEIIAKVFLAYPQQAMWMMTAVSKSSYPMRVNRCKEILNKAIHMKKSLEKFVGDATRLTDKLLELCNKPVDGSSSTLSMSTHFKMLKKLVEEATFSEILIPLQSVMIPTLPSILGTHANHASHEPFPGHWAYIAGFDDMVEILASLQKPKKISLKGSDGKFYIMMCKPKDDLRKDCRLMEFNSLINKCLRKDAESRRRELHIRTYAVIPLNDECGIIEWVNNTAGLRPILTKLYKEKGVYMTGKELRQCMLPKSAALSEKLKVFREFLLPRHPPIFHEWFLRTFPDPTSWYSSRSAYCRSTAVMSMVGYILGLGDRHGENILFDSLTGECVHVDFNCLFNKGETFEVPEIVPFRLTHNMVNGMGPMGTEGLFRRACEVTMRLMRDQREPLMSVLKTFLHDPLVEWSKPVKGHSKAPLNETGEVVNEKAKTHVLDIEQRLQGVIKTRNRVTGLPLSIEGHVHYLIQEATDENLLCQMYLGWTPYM

Row | Ki [nM] | SMILES
1 | 500 to 5000 | CC(C)S(=O)(=O)c1ccc(-c2cnc3[nH]cc(C(=O)N[C@@H]4c5ccccc5C[C@@H]4O)c3n2)cc1 [Compound I-65, N-[(1R,2S)-2-hydroxyindan-1-yl]-2-(4-isopropylsulfonylphenyl)-5H-pyrrolo[2,3-b]pyrazine-7-carboxamide]
2 | < 100 | Cc1cccc(CNC(=O)c2c[nH]c3ncc(-c4ccc(S(=O)(=O)C(C)C)cc4)nc23)c1Cl [Compound I-66, N-[(2-chloro-3-methyl-phenyl)methyl]-2-(4-isopropylsulfonylphenyl)-5H-pyrrolo[2,3-b]pyrazine-7-carboxamide]
3 | < 100 | Cc1ccc(Cl)cc1CNC(=O)c1c[nH]c2ncc(-c3ccc(S(=O)(=O)C(C)C)cc3)nc12 [Compound I-67, N-[(5-chloro-2-methyl-phenyl)methyl]-2-(4-isopropylsulfonylphenyl)-5H-pyrrolo[2,3-b]pyrazine-7-carboxamide]
4 | < 100 | Cc1cccc(CNC(=O)c2c[nH]c3ncc(-c4ccc(S(=O)(=O)C(C)C)cc4)nc23)c1C [Compound I-68, N-[(2,3-dimethylphenyl)methyl]-2-(4-isopropylsulfonylphenyl)-5H-pyrrolo[2,3-b]pyrazine-7-carboxamide]
5 | < 100 | CC(C)S(=O)(=O)c1ccc(-c2cnc3[nH]cc(C(=O)N[C@H]4c5ccccc5C[C@H]4O)c3n2)cc1 [Compound I-69, N-[(1S,2R)-2-hydroxyindan-1-yl]-2-(4-isopropylsulfonylphenyl)-5H-pyrrolo[2,3-b]pyrazine-7-carboxamide]
6 | 100 to 500 | Cc1ccc(NC(=O)c2c[nH]c3ncc(-c4ccc(S(=O)(=O)C(C)C)cc4)nc23)cc1 [Compound I-70, 2-(4-isopropylsulfonylphenyl)-N-(p-tolyl)-5H-pyrrolo[2,3-b]pyrazine-7-carboxamide]
7 | 100 to 500 | CC(C)S(=O)(=O)c1ccc(-c2cnc3[nH]cc(C(=O)N[C@@H](C)c4ccccc4F)c3n2)cc1 [Compound I-71, N-[(1S)-1-(2-fluorophenyl)ethyl]-2-(4-isopropylsulfonylphenyl)-5H-pyrrolo[2,3-b]pyrazine-7-carboxamide]
8 | 100 to 500 | CC(C)S(=O)(=O)c1ccc(-c2cnc3[nH]cc(C(=O)Nc4ccc(F)cc4)c3n2)cc1 [Compound I-72, N-(4-fluorophenyl)-2-(4-isopropylsulfonylphenyl)-5H-pyrrolo[2,3-b]pyrazine-7-carboxamide]
9 | < 100 | CC(C)S(=O)(=O)c1ccc(-c2cnc3[nH]cc(C(=O)Nc4cccc(F)c4)c3n2)cc1 [Compound I-73, N-(3-fluorophenyl)-2-(4-isopropylsulfonylphenyl)-5H-pyrrolo[2,3-b]pyrazine-7-carboxamide]
10 | 500 to 5000 | CC(C)S(=O)(=O)c1ccc(-c2cnc3[nH]cc(C(=O)N[C@@H](C)c4ccc(F)cc4)c3n2)cc1 [Compound I-74, N-[(1S)-1-(4-fluorophenyl)ethyl]-2-(4-isopropylsulfonylphenyl)-5H-pyrrolo[2,3-b]pyrazine-7-carboxamide]
11 | 100 to 500 | CC(C)S(=O)(=O)c1ccc(-c2cnc3[nH]cc(C(=O)NCc4cccc(F)c4)c3n2)cc1 [Compound I-75, N-[(3-fluorophenyl)methyl]-2-(4-isopropylsulfonylphenyl)-5H-pyrrolo[2,3-b]pyrazine-7-carboxamide]
12 | 500 to 5000 | Cc1cccc(NC(=O)c2c[nH]c3ncc(-c4ccc(S(=O)(=O)C(C)C)cc4)nc23)c1 [Compound I-76, 2-(4-isopropylsulfonylphenyl)-N-(m-tolyl)-5H-pyrrolo[2,3-b]pyrazine-7-carboxamide]
13 | 100 to 500 | CC(C)S(=O)(=O)c1ccc(-c2cnc3[nH]cc(C(=O)NC(CCO)c4cccc(O)c4)c3n2)cc1 (centres unmarked) [Compound I-77, N-[3-hydroxy-1-(3-hydroxyphenyl)propyl]-2-(4-isopropylsulfonylphenyl)-5H-pyrrolo[2,3-b]pyrazine-7-carboxamide]
14 | 100 to 500 | CC(C)S(=O)(=O)c1ccc(-c2cnc3[nH]cc(C(=O)NC(CCO)c4ccc(F)cc4)c3n2)cc1 (centres unmarked) [Compound I-78, N-[1-(4-fluorophenyl)-3-hydroxy-propyl]-2-(4-isopropylsulfonylphenyl)-5H-pyrrolo[2,3-b]pyrazine-7-carboxamide]
